Measured values taken from US20250114345A1, “COMPOUNDS AND COMPOSITIONS AS CBP/P300 DEGRADERS AND USES THEREOF” (Oncopia Therapeutics, Inc. d/b/a/ SK Life Science Labs, priority 2023, published 2025).

How the values were obtained:
p300 = biological target: T1, p300 (Homo sapiens, UniProt Q09472); test: P300 degradation, HiBit technology in A549 P300 HiBit cells (2 h); type: cell-based; conditions: 2 hrs post treatment; for Dmax: A549, A549 P300 HiBit cells; for DC50: A549 P300 HiBit cells
T1 construct: host or cells: A549 P300 HiBit cells
T1 sequence (Q09472 whole entry): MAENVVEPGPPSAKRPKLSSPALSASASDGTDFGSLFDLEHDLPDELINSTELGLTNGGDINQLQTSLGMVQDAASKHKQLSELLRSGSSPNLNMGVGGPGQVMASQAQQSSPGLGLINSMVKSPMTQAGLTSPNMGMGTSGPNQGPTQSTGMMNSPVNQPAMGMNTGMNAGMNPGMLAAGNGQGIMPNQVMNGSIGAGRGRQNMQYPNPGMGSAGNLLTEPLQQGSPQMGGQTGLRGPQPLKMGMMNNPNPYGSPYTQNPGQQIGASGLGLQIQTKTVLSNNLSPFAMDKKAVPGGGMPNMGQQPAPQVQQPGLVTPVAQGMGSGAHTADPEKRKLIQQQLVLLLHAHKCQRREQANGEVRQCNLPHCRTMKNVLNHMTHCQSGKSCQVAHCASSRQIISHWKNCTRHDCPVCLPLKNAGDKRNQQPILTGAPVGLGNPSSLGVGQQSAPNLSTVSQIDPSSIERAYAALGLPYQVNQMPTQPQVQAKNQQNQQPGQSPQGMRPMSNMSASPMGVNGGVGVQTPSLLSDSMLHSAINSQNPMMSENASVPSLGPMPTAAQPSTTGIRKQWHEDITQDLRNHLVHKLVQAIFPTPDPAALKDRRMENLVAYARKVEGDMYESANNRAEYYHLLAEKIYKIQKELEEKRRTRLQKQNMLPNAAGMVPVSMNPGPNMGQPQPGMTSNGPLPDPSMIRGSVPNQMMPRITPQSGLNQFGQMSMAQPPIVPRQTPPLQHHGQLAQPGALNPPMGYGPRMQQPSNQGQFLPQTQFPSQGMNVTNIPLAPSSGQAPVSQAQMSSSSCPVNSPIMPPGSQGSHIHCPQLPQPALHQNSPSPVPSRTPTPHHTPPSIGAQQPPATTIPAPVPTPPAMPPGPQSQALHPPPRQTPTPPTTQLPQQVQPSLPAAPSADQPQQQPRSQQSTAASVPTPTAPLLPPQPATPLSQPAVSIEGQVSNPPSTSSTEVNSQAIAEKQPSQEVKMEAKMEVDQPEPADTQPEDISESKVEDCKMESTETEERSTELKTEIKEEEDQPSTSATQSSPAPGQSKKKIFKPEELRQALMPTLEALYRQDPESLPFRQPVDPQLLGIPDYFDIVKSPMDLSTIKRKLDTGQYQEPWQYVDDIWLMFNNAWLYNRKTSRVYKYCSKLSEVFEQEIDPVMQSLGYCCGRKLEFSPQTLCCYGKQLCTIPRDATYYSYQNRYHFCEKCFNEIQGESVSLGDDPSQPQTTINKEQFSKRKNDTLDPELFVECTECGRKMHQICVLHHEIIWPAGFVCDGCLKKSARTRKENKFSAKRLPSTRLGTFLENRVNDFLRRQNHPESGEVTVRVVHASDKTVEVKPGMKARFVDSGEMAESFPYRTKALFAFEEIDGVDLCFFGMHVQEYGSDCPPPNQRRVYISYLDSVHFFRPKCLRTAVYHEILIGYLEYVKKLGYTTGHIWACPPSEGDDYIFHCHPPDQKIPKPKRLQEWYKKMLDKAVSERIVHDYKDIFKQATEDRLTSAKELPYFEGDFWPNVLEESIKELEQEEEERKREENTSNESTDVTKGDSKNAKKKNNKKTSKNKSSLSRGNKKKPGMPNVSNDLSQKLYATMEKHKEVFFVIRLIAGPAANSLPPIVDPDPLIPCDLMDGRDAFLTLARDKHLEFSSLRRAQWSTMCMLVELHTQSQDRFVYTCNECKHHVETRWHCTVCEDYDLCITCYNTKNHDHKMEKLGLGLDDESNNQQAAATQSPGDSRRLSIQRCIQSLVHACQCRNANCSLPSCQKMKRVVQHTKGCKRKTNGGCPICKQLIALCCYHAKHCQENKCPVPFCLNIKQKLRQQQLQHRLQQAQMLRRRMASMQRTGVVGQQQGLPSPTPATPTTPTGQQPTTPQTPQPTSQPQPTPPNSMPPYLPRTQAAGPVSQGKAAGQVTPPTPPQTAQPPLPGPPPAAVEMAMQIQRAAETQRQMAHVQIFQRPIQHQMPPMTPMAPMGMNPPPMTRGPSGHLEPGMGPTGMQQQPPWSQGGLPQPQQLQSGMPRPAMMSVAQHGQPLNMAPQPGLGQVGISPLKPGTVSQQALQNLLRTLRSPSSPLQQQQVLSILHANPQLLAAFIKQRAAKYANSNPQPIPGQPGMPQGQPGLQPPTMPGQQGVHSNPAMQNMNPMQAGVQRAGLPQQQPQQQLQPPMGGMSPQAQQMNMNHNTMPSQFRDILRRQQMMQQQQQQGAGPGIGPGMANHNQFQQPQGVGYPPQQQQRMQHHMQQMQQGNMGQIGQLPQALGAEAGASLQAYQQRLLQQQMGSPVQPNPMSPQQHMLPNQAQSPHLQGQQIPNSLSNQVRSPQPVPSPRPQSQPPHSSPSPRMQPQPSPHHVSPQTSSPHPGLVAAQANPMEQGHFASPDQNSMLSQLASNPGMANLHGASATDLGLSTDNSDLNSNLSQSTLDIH
In short: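 Degradation potency and Dmax came from luminescence after 10 min room-temperature lysis with HiBit detection buffer. Beforehand, HiBit-tagged A549 lines received serial compound dilutions (10 mM DMSO stocks) at 37 °C, 5% CO2. CBP cells were read at 24 h, p300 cells at 2 h.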

CBP = biological target: T2, CBP (Homo sapiens, UniProt Q92793); test: CBP degradation, HiBit technology in A549 CBP HiBit cells (24 h); type: cell-based; conditions: 24 hrs post treatment
T2 construct: host or cells: A549 CBP HiBit cells
T2 sequence (Q92793 whole entry): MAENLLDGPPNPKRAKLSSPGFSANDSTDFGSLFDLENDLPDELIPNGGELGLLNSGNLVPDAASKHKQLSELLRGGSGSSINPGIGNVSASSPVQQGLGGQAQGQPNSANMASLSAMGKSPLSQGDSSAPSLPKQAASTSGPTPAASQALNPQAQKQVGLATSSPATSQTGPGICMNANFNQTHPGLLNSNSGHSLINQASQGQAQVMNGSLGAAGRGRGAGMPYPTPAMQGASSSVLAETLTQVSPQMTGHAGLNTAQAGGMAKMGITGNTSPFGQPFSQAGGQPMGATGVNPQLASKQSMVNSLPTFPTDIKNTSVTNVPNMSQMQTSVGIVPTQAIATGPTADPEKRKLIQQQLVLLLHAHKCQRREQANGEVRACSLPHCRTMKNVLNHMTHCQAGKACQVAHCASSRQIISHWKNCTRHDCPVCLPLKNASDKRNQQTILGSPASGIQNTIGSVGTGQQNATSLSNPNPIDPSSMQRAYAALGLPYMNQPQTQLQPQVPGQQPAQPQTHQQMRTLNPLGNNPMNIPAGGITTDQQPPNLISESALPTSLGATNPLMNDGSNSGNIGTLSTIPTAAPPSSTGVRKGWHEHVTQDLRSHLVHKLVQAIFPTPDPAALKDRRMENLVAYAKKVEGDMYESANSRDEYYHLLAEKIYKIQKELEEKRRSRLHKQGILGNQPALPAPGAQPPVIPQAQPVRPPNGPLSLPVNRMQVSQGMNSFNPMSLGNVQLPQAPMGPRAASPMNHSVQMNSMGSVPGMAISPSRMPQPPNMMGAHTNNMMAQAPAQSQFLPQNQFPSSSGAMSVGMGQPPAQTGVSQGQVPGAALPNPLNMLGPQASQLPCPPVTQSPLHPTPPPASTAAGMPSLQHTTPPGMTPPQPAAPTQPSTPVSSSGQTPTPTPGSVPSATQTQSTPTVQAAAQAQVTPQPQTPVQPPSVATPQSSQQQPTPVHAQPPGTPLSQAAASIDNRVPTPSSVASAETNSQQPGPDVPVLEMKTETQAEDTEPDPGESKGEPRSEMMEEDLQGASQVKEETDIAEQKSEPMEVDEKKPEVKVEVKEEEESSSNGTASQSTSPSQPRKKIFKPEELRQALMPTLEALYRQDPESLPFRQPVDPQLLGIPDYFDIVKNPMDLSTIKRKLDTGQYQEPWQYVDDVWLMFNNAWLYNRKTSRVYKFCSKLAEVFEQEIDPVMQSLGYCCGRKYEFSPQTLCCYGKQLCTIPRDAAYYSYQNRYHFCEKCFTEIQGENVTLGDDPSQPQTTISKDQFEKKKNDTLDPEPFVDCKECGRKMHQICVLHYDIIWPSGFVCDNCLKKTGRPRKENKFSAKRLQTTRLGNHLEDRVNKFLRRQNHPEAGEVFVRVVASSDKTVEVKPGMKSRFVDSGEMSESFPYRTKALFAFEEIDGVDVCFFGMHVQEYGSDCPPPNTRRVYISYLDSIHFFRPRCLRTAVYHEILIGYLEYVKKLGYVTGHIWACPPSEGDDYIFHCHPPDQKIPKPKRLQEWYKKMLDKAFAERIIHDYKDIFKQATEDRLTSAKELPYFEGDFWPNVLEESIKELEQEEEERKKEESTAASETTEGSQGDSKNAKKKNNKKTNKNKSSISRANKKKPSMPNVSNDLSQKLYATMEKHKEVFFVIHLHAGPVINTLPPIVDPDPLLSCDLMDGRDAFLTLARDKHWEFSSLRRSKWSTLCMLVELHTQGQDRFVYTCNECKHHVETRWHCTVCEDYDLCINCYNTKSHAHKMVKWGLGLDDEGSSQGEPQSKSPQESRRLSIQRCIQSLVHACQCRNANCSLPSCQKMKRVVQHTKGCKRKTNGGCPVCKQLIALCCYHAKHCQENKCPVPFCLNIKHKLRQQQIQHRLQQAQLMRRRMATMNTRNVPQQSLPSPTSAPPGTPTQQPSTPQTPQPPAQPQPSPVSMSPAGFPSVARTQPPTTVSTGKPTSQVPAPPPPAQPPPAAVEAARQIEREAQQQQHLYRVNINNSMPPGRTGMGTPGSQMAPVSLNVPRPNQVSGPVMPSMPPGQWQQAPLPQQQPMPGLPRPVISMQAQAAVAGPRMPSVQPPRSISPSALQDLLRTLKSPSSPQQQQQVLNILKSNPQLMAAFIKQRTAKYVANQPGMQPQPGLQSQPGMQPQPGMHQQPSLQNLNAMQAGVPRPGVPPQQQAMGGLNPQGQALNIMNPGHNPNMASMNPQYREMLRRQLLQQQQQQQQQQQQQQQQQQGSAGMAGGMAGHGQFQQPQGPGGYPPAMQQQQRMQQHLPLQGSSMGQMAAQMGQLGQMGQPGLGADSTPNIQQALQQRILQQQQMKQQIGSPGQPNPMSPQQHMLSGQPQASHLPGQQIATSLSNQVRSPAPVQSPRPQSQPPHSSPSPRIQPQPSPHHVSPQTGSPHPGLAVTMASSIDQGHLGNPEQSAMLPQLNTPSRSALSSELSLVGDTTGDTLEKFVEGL
Description: p300 and CBP degradation potency and Dmax were determined using in cell western (ICW) assay technology in H1299 cells or HiBit technology in A549 HiBit cells.
A549 P300 HiBit and A549 CBP HiBit cells were plated in separate 384-well, TC treated, white-opaque, flat-bottomed microplate. Cells were plated at a cell density of 0.2×10^4 cells per well in assay media comprised of F-12K, 10% heat inactivated FBS, and 1% penicillin/streptomycin. Assay microplates containing HiBit cells were placed in a 37° C., 5% CO2, tissue culture incubator and left to equilibrate overnight. The next day cells were treated with serial dilutions of test compound made up of 10 mM stock solutions in DMSO. 384-Well plates containing treated cells were then placed back into a 37° C., 5% CO2, tissue culture incubator. Assay microplates containing A549 P300 HiBit cells were incubated for 2 hrs post treatment before P300 destruction was assessed, while microplates containing A549 CBP HiBit cells were incubated for 24 hrs post treatment before CBP destruction was determined. On the day of each assay time point, microplates were removed from the tissue culture incubator and prepared HiBit Lytic detection buffer (Promega, cat #N3O40) was added to each plate. Plates were covered with aluminum foil and incubated for ten minutes at room temperature on an orbital shaker. After incubation, luminescent signal of each plate was measured using the Envision instrument (Perkin Elmer).

Structure (SMILES) | Dmax (p300) [%] | DC50 (p300) [nM] | DC50 (CBP) [nM] | Dmax (CBP) [%]
Cc1cc(-c2cc3c(cc2F)N(c2ccc4c(c2)n(C)c(=O)n4C)CCO3)cnc1C(=O)NCC#Cc1ccc2occ(C3CCC(=O)NC3=O)c2c1 (stereo not shown) [Example A111, 5-(4-(1,3-dimethyl-2-oxo-2,3-dihydro-1H-benzo[d]imidazol-5-yl)-6-fluoro-3,4-dihydro-2H-benzo[b] [1,4]oxazin-7-yl)-N-(3-(3-(2,6-dioxo-piperidin-3-yl)benzofuran-5-yl)prop-2-yn-1-yl)-3-methylpicolinamide] | > 80 | 10 to 99 | > 1000 | < 20
CCN(c1cnc(-c2cnc(C(=O)NCC#Cc3ccc4occ(C5CCC(=O)NC5=O)c4c3)c(C)c2)nc1)c1cc(C(C)C)c2c(c1)n(C)c(=O)n2C (stereo not shown) [Example A70, N-(3-(3-(2,6-dioxopiperidin-3-yl)benzofuran-5-yl)prop-2-yn-1-yl)-5-(5-(ethyl(7-isopropyl-1,3-dimethyl-2-oxo-2,3-dihydro-1H-benzo[d]imidazol-5-yl)amino)pyrimidin-2-yl)-3-methylpicolinamide] | > 80 | 1 to 9.9 | > 1000 | < 20
Cc1cc2c(-c3cn(C)c(=O)c4cc(-c5ccc(C(=O)NCC#Cc6cc7c(C8CCC(=O)NC8=O)cccc7o6)nc5)ncc34)nc(N3CCOCC3)cc2n(C)c1=O (stereo not shown) [Example B131, 5-(8-(1,3-dimethyl-7-morpholino-2-oxo-1,2-dihydro-1,6-naphthyridin-5-yl)-6-methyl-5-oxo-5,6-dihydro-2,6-naphthyridin-3-yl)-N-(3-(4-(2,6-dioxopiperidin-3-yl)benzofuran-2-yl)prop-2-yn-1-yl)picolinamide] | > 80 | 1 to 9.9 | > 1000 | < 20
CC(C)c1cc(N2CCCc3nc(-c4ccc(C(=O)NCC#Cc5ccc6occ(C7CCC(=O)NC7=O)c6c5)nc4)ncc32)cc2c1n(C)c(=O)n2C (stereo not shown) [Example A133, N-(3-(3-(2,6-dioxo-piperidin-3-yl)benzofuran-5-yl)prop-2-yn-1-yl)-5-(5-(7-isopropyl-1,3-dimethyl-2-oxo-2,3-dihydro-1H-benzo [d]imidazol-5-yl)-5,6,7,8-tetrahydro-pyrido[3,2-d]pyrimidin-2-yl)picolinamide] | > 80 | 1 to 9.9 | 100 to 999 | < 20
Cc1cc2c(-c3cccc4cc(-c5ccc(C(=O)NCC#Cc6ccc7occ(C8CCC(=O)NC8=O)c7c6)nc5)ncc34)nc(OC(C)C)cc2n(C)c1=O (stereo not shown) [Example B88, N-(3-(3-(2,6-dioxopiperidin-3-yl)benzofuran-5-yl)prop-2-yn-1-yl)-5-(8-(7-isopropoxy-1,3-dimethyl-2-oxo-1,2-dihydro-1,6-naphthyridin-5-yl)isoquinolin-3-yl)picolinamide] | > 80 | 1 to 9.9 | > 1000 | < 20
CC(C)c1cc(-c2cccc3cc(-c4ccc(C(=O)NCC#Cc5ccc6occ(C78CC(C7)C(=O)NC8=O)c6c5)nc4)ncc23)cc2c1n(C)c(=O)n2C [Example A212, N-(3-(3-(2,4-dioxo-3-azabicyclo[3.1.1]heptan-1-yl)benzofuran-5-yl)prop-2-yn-1-yl)-5-(8-(7-isopropyl-1,3-dimethyl-2-oxo-2,3-dihydro-1H-benzo[d]imidazol-5-yl)isoquinolin-3-yl)picolinamide] | > 80 | 1 to 9.9 | > 1000 | < 20
Cn1c(=O)n(C)c2c(N3CC4CCC(C3)O4)nc(-c3cccc4cc(-c5ccc(C(=O)NCC#Cc6ccc7occ(C89CC(C8)C(=O)NC9=O)c7c6)nc5)ncc34)cc21 [Example A194, 5-(8-(4-(8-oxa-3-azabicyclo[3.2.1]octan-3-yl)-1,3-dimethyl-2-oxo-2,3-dihydro-1H-imidazo[4,5-c]pyridin-6-yl)isoquinolin-3-yl)-N-(3-(3-(2,4-dioxo-3-azabicyclo[3.1.1]heptan-1-yl)benzofuran-5-yl)prop-2-yn-1-yl)picolinamide] | > 80 | 1 to 9.9 | > 1000 | < 20
Cn1c(=O)n(C)c2c(N3CCOCC3)nc(-c3cccc4cc(-c5ccc(C(=O)NCC#Cc6ccc7occ(C8CCC(=O)NC8=O)c7c6)nc5)ncc34)cc21 (stereo not shown) [Example A138, 5-(8-(1,3-dimethyl-4-morpholino-2-oxo-2,3-dihydro-1H-imidazo[4,5-c]pyridin-6-yl)isoquinolin-3-yl)-N-(3-(3-(2,6-dioxopiperidin-3-yl)benzofuran-5-yl)prop-2-yn-1-yl)picolinamide] | > 80 | < 1 | > 1000 | < 20
CCN(CC)c1cc2c(cc(C)c(=O)n2C)c(N2CCCc3nc(-c4ccc(C(=O)NCC#Cc5cc6c(C7CCC(=O)NC7=O)nccc6o5)nc4)ncc32)n1 (stereo not shown) [Example B25, 5-(5-(7-(diethylamino)-1,3-dimethyl-2-oxo-1,2-dihydro-1,6-naphthyridin-5-yl)-5,6,7,8-tetrahydropyrido[3,2-d]pyrimidin-2-yl)-N-(3-(4-(2,6-dioxopiperidin-3-yl)furo[3,2-c]pyridin-2-yl)prop-2-yn-1-yl)picolinamide] | > 80 | 1 to 9.9 | 10 to 99 | 20 to 39
Cc1cc2c(N3CCCc4nc(-c5ccc(C(=O)NCC#Cc6cc7c(C8CCC(=O)NC8=O)cccc7o6)nc5)ncc43)cc(C3CCC3)cc2n(C)c1=O (stereo not shown) [Example B161, 5-(5-(7-cyclobutyl-1,3-dimethyl-2-oxo-1,2-dihydroquinolin-5-yl)-5,6,7,8-tetrahydropyrido [3,2-d]pyrimidin-2-yl)-N-(3-(4-(2,6-dioxo-piperidin-3-yl)benzofuran-2-yl)prop-2-yn-1-yl)picolinamide] | > 80 | 1 to 9.9 | > 1000 | < 20
CN1CCN(c2ccc3c(c2)n(C)c(=O)n3C)c2cnc(-c3ccc(C(=O)NCC#Cc4ccc5occ(C6CCC(=O)NC6=O)c5c4)nc3)nc21 (stereo not shown) [Example A122, 5-(5-(1,3-dimethyl-2-oxo-2,3-dihydro-1H-benzo[d]imidazol-5-yl)-8-methyl-5,6,7,8-tetrahydropteridin-2-yl)-N-(3-(3-(2,6-dioxopiperidin-3-yl)benzofuran-5-yl)prop-2-yn-1-yl)picolinamide] | > 80 | < 1 | > 1000 | < 20
Cc1cc2c(N3CCCc4nc(-c5ccc(C(=O)NCC#Cc6cc7c(C8CCC(=O)NC8=O)cccc7o6)nc5)ncc43)nc(N3CCC(C)(O)CC3)cc2n(C)c1=O (stereo not shown) [Example B162, N-(3-(4-(2,6-dioxopiperidin-3-yl)benzofuran-2-yl)prop-2-yn-1-yl)-5-(5-(7-(4-hydroxy-4-methylpiperidin-1-yl)-1,3-dimethyl-2-oxo-1,2-dihydro-1,6-naphthyridin-5-yl)-5,6,7,8-tetrahydropyrido[3,2-d]pyrimidin-2-yl) picolinamide] | > 80 | 1 to 9.9 | > 1000 | < 20
Cn1c(=O)n(C)c2cc(N3CCOc4nc(-c5ccc(C(=O)NCC#Cc6cc7c(C8CCC(=O)NC8=O)cccc7o6)nc5)ncc43)ccc21 (stereo not shown) [Example A165, 5-(5-(1,3-dimethyl-2-oxo-2,3-dihydro-1H-benzo[d]imidazol-5-yl)-6,7-dihydro-5H-pyrimido[4,5-b][1,4]oxazin-2-yl)-N-(3-(4-(2,6-dioxopiperidin-3-yl)benzofuran-2-yl)prop-2-yn-1-yl)picolinamide] | > 80 | 1 to 9.9 | > 1000 | < 20
